Source: paper PMC10574185, “Encapsulation and Biological Activity of Hesperetin Derivatives with HP-β-CD” (Molecules, 2023)
Converted amounts (≈) assume the structure as drawn. Read-outs that look alike come from different tables or passages of the source.

Key:
[1] = system: Staphylococcus aureus ATCC 25923; assay: Minimal inhibition concentration (dilution + diffusion-well); format: cell-based; settings: ATCC25923, 37 °C, 18 h
Experimental: The MIC was performed for compounds and strains sensitive to their action in the antagonistic test. Minimum inhibitory concentration was determined by combining the dilution method with the diffusion-well method. Test compounds at a concentration of 500 μM were prepared in 5% (w/w) DMSO. Surface layer of microorganisms, against which antagonistic activity was noted, were prepared in the same way as for the antagonistic test. Then, two-fold sequential dilutions of the test compounds in the range of 500 µM to 62.5 µM were prepared. Wells with a diameter of 8 mm cut in the Mueller–Hinton Agar (Merck, Darmstadt, Germany) with the test strain were added with 50 µL of the prepared dilutions, which corresponded to the following concentrations of the tested compounds: […], 1.25 mM, 0.625 mM, and […]. Petri dishes prepared in this way were incubated at 37 °C for 18 h. After a given time, the MIC value was read. The MIC concentration expressed in µM was the first concentration of the tested compounds at which growth inhibition of the test strain was observed.

[2] = ABTS^•+ radical cation decolorization assay; settings: concentration 0.1 mg/mL, mean ± SD
Experimental: To evaluate the antioxidant ability of the tested systems, antioxidant analysis was performed. Antioxidants can scavenge hydroxyl radicals in two ways: by reacting directly with hydroxyl radicals (DPPH^•, ABTS^•+) or indirectly inhibiting the formation of hydroxyl radicals by chelating metal ions involved in the production of hydroxyl radicals. The antioxidant activity of the systems studied was investigated by using DPPH^• scavenging, ABTS^•+ scavenging ability, and Fe^2+-chelating ability. In this study, the antioxidant activity of pure hesperetin and its Schiff bases (HHSB, HIN, and HTSC) and HP-β-CD complexes were compared, and the positive control was Trolox.
Antioxidant activity using ABTS^•+ cation radical scavenging was determined according to a modified method. ABTS solution (2.5 mM) was mixed with 1.0 mM potassium persulfate solution and left at room temperature in the dark for 12-24 h. After this time, the absorbance of the finished ABTS^•+ solution was corrected with ethanol to 0.70 ± 0.02 at 745 nm. A total of 100 µL of the sample was reacted for 5 min with 2 mL of ABTS^•+ solution (A745 nm = 0.70 ± 0.02). The absorbance value of the reaction mixture was measured at 745 nm. […] Scavenging activity (%) = [1 − (Asample − Ablank)/Acontrol] × 100%(4) where Acontrol is the absorbance value of the control (ABTS^•+ solution with water), Ablank is the absorbance value of samples mixed with anhydrous ethanol, and Asample is the absorbance value of the added test sample to ABTS^•+ solution at 745 nm, respectively.

[3] = Phase solubility studies with HP-β-CD; format: physicochemical
Experimental: The purpose of this part of the study was to determine the solubility of compounds of hesperetin and its Schiff bases (HHSB, HIN, and HTSC) in aqueous solution at different pHs and temperatures, and the effect of their inclusion in modified HP-β-CD on the aqueous solubility of these compounds at different pH values.
The effect of the presence of HP-β-CD at different temperatures (25, 37, and 60 °C) was determined by developing phase solubility diagrams.
In accordance with the methodology described in Section 3.4, excess amounts of each tested substance were added to aqueous solution with increasing concentration of HP-β-CD up to 16 mM, respectively, in 2 mL of 100 mM sodium acetate buffer (pH 3.6), 100 mM sodium phosphate buffer (pH 6.5) or 100 mM sodium borate buffer (pH 8.5).
Phase solubility studies were conducted according to [64] with some modifications. Excess amounts of each tested substance were added to aqueous solution with increasing concentration of HP-β-CD up to 16 mM, in 2 mL of 100 mM sodium acetate buffer (pH 3.6), 100 mM sodium phosphate buffer (pH 6.5), or 100 mM sodium borate buffer (pH 8.5), respectively. The samples were maintained in an ultrasonic bath at various temperatures (25, 37, and 60 °C) for 60 min to reach equilibrium. The aqueous solutions were then filtered through 0.45 µm acetate cellulose (CA) membrane filter and diluted. The tested compound concentration on each clear filtrate was spectrophotometrically determined by measuring at their wavelength maximum.
The complexation constant (Kc) between studied molecules and HP-β-CD was determined by using Equation (1):(1) Kc=slope/S0 (1−slope) where S0 means the water solubility of the studied substance, and “slope” means the slope of the phase solubility diagram.
Complexation efficiency was calculated from the slope of the phase solubility diagram using Equation (2):(2) CE=S0×Kc=slope/1−slope
The CE was also applied to evaluate the molar ratio in solution of tested systems using Equation (3):(3) Compound:HP−β−CD=1:(1+1/CE)

COc1ccc(C2C/C(=N\NC(=O)c3ccncc3)c3c(O)cc(O)cc3O2)cc1O (racemic) [HIN]
MIC [1]: 2.5 µM | ABTS^•+ antioxidant activity [2]: 31.56 ± 1.6% | CE complexation efficiency ([3]; 25 °C, pH 3.6, with HP-β-CD): 0.7% | Kc complexation constant ([3]; 25 °C, pH 3.6, with HP-β-CD): 102 ± 43 M⁻¹ | CE complexation efficiency ([3]; 25 °C, pH 6.5, with HP-β-CD): 0.2% | Kc complexation constant ([3]; 25 °C, pH 6.5, with HP-β-CD): 39 ± 3.6 M⁻¹ | CE complexation efficiency ([3]; 25 °C, pH 8.5, with HP-β-CD): 1.3% | Kc complexation constant ([3]; 25 °C, pH 8.5, with HP-β-CD): 143 ± 1.6 M⁻¹ | CE complexation efficiency ([3]; 37 °C, pH 3.6, with HP-β-CD): 1.3% | Kc complexation constant ([3]; 37 °C, pH 3.6, with HP-β-CD): 145 ± 13 M⁻¹ | CE complexation efficiency ([3]; 37 °C, pH 6.5, with HP-β-CD): 0.04% | Kc complexation constant ([3]; 37 °C, pH 6.5, with HP-β-CD): 25 ± 3.9 M⁻¹ | CE complexation efficiency ([3]; 37 °C, pH 8.5, with HP-β-CD): 0.04% | Kc complexation constant ([3]; 37 °C, pH 8.5, with HP-β-CD): 28 ± 3.9 M⁻¹ | increase of solubility with HP-β-CD ([3]; 60 °C, pH 3.6): five-fold | CE complexation efficiency ([3]; 60 °C, pH 3.6, with HP-β-CD): 0.3% | Kc complexation constant ([3]; 60 °C, pH 3.6, with HP-β-CD): 62 ± 1.7 M⁻¹ | increase of solubility with HP-β-CD ([3]; 60 °C, pH 6.5): five-fold | CE complexation efficiency ([3]; 60 °C, pH 6.5, with HP-β-CD): 0.3% | Kc complexation constant ([3]; 60 °C, pH 6.5, with HP-β-CD): 61 ± 2.6 M⁻¹ | CE complexation efficiency ([3]; 60 °C, pH 8.5, with HP-β-CD): 3.7% | Kc complexation constant ([3]; 60 °C, pH 8.5, with HP-β-CD): 132 ± 23 M⁻¹ | solubility at 60 min ([3]; aqueous buffer solutions, 25 °C, pH 3.6 to 8.5, read-out: solubility, increasing trend with increasing pH): 17 to 90 µM (≈ 7.16 to 37.9 µg/mL) | solubility at 60 min ([3]; aqueous buffer, thermodynamic from solid, 25 °C, pH 3.6 sodium acetate buffer, without cyclodextrin, read-out: solubility without HP-β-CD (value in brackets) (converted)): 29 µM (≈ 12.2 µg/mL) | solubility at 60 min ([3]; aqueous buffer, thermodynamic from solid, 25 °C, pH 6.5 sodium phosphate buffer, without cyclodextrin, read-out: solubility without HP-β-CD (value in brackets) (converted)): 17 µM (≈ 7.16 µg/mL) | solubility at 60 min ([3]; aqueous buffer, thermodynamic from solid, 25 °C, pH 8.5 sodium borate buffer, without cyclodextrin, read-out: solubility without HP-β-CD (value in brackets) (converted)): 20 µM (≈ 8.43 µg/mL) | solubility at 60 min ([3]; aqueous buffer, thermodynamic from solid, 37 °C, pH 3.6 sodium acetate buffer, without cyclodextrin, read-out: solubility without HP-β-CD (value in brackets) (converted)): 20 µM (≈ 8.43 µg/mL) | solubility at 60 min ([3]; aqueous buffer, thermodynamic from solid, 37 °C, pH 6.5 sodium phosphate buffer, without cyclodextrin, read-out: solubility without HP-β-CD (value in brackets) (converted)): 1 µM (≈ 0.421 µg/mL) | solubility at 60 min ([3]; aqueous buffer, thermodynamic from solid, 37 °C, pH 8.5 sodium borate buffer, without cyclodextrin, read-out: solubility without HP-β-CD (value in brackets) (converted)): 1 µM (≈ 0.421 µg/mL) | solubility at 60 min ([3]; aqueous buffer, thermodynamic from solid, 60 °C, pH 3.6 sodium acetate buffer, without cyclodextrin, read-out: solubility without HP-β-CD (value in brackets) (converted)): 8 µM (≈ 3.37 µg/mL) | solubility at 60 min ([3]; aqueous buffer, thermodynamic from solid, 60 °C, pH 6.5 sodium phosphate buffer, without cyclodextrin, read-out: solubility without HP-β-CD (value in brackets) (converted)): 8 µM (≈ 3.37 µg/mL) | solubility at 60 min ([3]; aqueous buffer, thermodynamic from solid, 60 °C, pH 8.5 sodium borate buffer, without cyclodextrin, read-out: solubility without HP-β-CD (value in brackets) (converted)): 143 µM (≈ 60.3 µg/mL) | solubility at 60 min ([3]; thermodynamic from solid, 25 °C, pH 3.6 sodium acetate buffer, with HP-β-CD, read-out: S0 (solubility with HP-β-CD)): 68 ± 40 µM (≈ 28.7 µg/mL) | solubility at 60 min ([3]; thermodynamic from solid, 25 °C, pH 6.5 sodium phosphate buffer, with HP-β-CD, read-out: S0 (solubility with HP-β-CD)): 52 ± 24 µM (≈ 21.9 µg/mL) | solubility at 60 min ([3]; thermodynamic from solid, 25 °C, pH 8.5 sodium borate buffer, with HP-β-CD, read-out: S0 (solubility with HP-β-CD)): 90 ± 50 µM (≈ 37.9 µg/mL) | solubility at 60 min ([3]; thermodynamic from solid, 37 °C, pH 3.6 sodium acetate buffer, with HP-β-CD, read-out: S0 (solubility with HP-β-CD)): 90 ± 50 µM (≈ 37.9 µg/mL) | solubility at 60 min ([3]; thermodynamic from solid, 37 °C, pH 6.5 sodium phosphate buffer, with HP-β-CD, read-out: S0 (solubility with HP-β-CD)): 15 ± 9 µM (≈ 6.32 µg/mL) | solubility at 60 min ([3]; thermodynamic from solid, 37 °C, pH 8.5 sodium borate buffer, with HP-β-CD, read-out: S0 (solubility with HP-β-CD)): 14 ± 10 µM (≈ 5.9 µg/mL) | solubility at 60 min ([3]; thermodynamic from solid, 60 °C, pH 3.6 sodium acetate buffer, with HP-β-CD, read-out: S0 (solubility with HP-β-CD)): 41 ± 20 µM (≈ 17.3 µg/mL) | solubility at 60 min ([3]; thermodynamic from solid, 60 °C, pH 6.5 sodium phosphate buffer, with HP-β-CD, read-out: S0 (solubility with HP-β-CD)): 41 ± 20 µM (≈ 17.3 µg/mL) | solubility at 60 min ([3]; thermodynamic from solid, 60 °C, pH 8.5 sodium borate buffer, with HP-β-CD, read-out: S0 (solubility with HP-β-CD)): 283 ± 27 µM (≈ 119 µg/mL)
